Results taken from the C3SDB collision cross section collection.
Where “and” joins values, the source holds several entries; their conditions need not be identical. Identical values can stand only once.

Conditions: instrument: DT, single field, calibrated with ESI Low Concentration Tuning Mix (Agilent)

Row | Compound | collision cross section (N2) ([M+Na]+) | collision cross section (N2) ([M-H]-) | collision cross section (N2) ([M+Na-2H]-) | collision cross section (N2) ([M+H2O-H]-) [Å²] | collision cross section (N2) ([M+H]+) | collision cross section (N2) ([M+K]+) [Å²]
1 | OC[C@H]1O[C@H](O)[C@H](O)[C@@H](O)[C@@H]1O [ALPHA-D-GLUCOSE] | 146.6 Å² |  |  |  |  | 
2 | OC1OC[C@H](O)[C@H](O)[C@H]1O (stereo partly drawn) [ARABINOSE] | 134.6 Å² |  |  |  |  | 
3 | O=C1O[C@H]([C@@H](O)CO)C(O)=C1O [ASCORBATE] | 141.6 Å² | 127.7 Å² |  |  |  | 
4 | N[C@@H](CC(=O)O)C(=O)O [ASPARTATE] |  | 118.6 Å² and 118.7 Å² |  |  |  | 
5 | O=P(O)(O)OC(CO)CO [BETA-GLYCEROPHOSPHATE] | 140.5 Å² | 126.3 Å² | 147.2 Å² |  |  | 
6 | CCCCC(CC)COC(=O)c1ccccc1C(=O)OCC(CC)CCCC (stereo not drawn) [BIS(2-ETHYLHEXYL)PHTHALATE] |  |  |  | 203 | 212.2 Å² | 
7 | NCCOP(=O)(O)OP(=O)(O)OC[C@H]1O[C@@H](n2ccc(N)nc2=O)[C@H](O)[C@@H]1O [CDP-ETHANOLAMINE] |  | 188.2 Å² | 186.1 Å² |  |  | 
8 | C[C@H](CCC(=O)O)[C@H]1CC[C@H]2[C@@H]3[C@H](O)C[C@@H]4C[C@H](O)CC[C@]4(C)[C@H]3C[C@H](O)[C@]12C [CHOLATE] | 197.5 Å² | 203.1 Å² |  |  |  | 
9 | CCCCCCCCCCCCCCCC(=O)O[C@H]1CC[C@@]2(C)C(=CC[C@H]3[C@@H]4CC[C@H]([C@H](C)CCCC(C)C)[C@@]4(C)CC[C@@H]32)C1 [CHOLESTERYL PALMITATE] | 286.3 Å² |  |  |  |  | 
10 | C[N+](C)(C)CCOP(=O)([O-])OP(=O)(O)OC[C@H]1O[C@@H](n2ccc(N)nc2=O)[C@H](O)[C@@H]1O [CITICOLINE] | 207.8 Å² | 205.9 Å² | 210.2 Å² |  | 198.3 Å² | 
11 | CC(C)(COP(=O)(O)OP(=O)(O)OC[C@H]1O[C@@H](n2cnc3c(N)ncnc32)[C@H](O)[C@@H]1OP(=O)(O)O)[C@@H](O)C(=O)NCCC(=O)NCCS [COENZYME A] | 255.5 Å² | 244.4 Å² | 246.2 Å² |  | 241.4 Å² | 
12 | C[C@]12CCC(=O)C=C1CC[C@@H]1[C@@H]2CC[C@@]2(C)[C@H]1CC[C@]2(O)C(=O)CO [CORTEXOLONE] | 211 Å² |  |  |  | 187.7 Å² | 
13 | C[C@]12C[C@H](O)[C@H]3[C@@H](CCC4=CC(=O)CC[C@@]43C)[C@@H]1CC[C@@H]2C(=O)CO [CORTICOSTERONE] |  | 186.8 Å² |  |  | 186.9 Å² | 208.4
14 | C[C@]12CCC(=O)C=C1CC[C@@H]1[C@@H]2[C@@H](O)C[C@@]2(C)[C@H]1CC[C@]2(O)C(=O)CO [CORTISOL] | 212.9 Å² | 191.9 Å² |  |  | 188.6 Å² | 210.7
15 | Nc1ncnc2c1ncn2[C@@H]1O[C@@H]2COP(=O)(O)O[C@H]2[C@H]1O [CYCLIC AMP] | 181 Å² and 188.6 Å² and 188.8 Å² | 171.8 Å² and 172 Å² |  |  | 172.6 Å² and 176.8 Å² | 
16 | Nc1ccn([C@@H]2O[C@H](COP(=O)(O)OP(=O)(O)O)[C@@H](O)[C@H]2O)c(=O)n1 [CYTIDINE DIPHOSPHATE] | 179.9 Å² | 174.2 Å² | 176.3 Å² |  | 175.6 Å² | 
17 | O=C1O[C@H]([C@@H](O)CO)C(=O)C1=O [DEHYDROASCORBATE] |  | 127.8 Å² |  |  |  | 

Row | Compound | collision cross section (N2) ([M+Na]+) | collision cross section (N2) ([M-H]-) | collision cross section (N2) ([M+Na-2H]-) | collision cross section (N2) ([M+H2O-H]-) [Å²] | collision cross section (N2) ([M+H]+) | collision cross section (N2) ([M+K]+) [Å²]
18 | Nc1ncnc2c1ncn2[C@H]1C[C@H](O)[C@@H](COP(=O)(O)OP(=O)(O)OP(=O)(O)O)O1 [DEOXYADENOSINE TRIPHOSPHATE] | 202 Å² | 186.5 Å² | 185.9 Å² |  | 194.8 Å² | 
19 | C[N+](C)(C)CCCC(=O)[O-] [DEOXYCARNITINE] |  |  |  |  | 129.7 Å² | 
20 | CC(=O)OCC(=O)[C@H]1CC[C@H]2[C@@H]3CCC4=CC(=O)CC[C@]4(C)[C@H]3CC[C@]12C [DEOXYCORTICOSTERONE ACETATE] |  |  |  |  | 196.9 Å² | 
21 | Nc1nc(=O)c2ncn([C@H]3C[C@H](O)[C@@H](CO)O3)c2[nH]1 [DEOXYGUANOSINE] | 171.7 Å² | 159.1 Å² |  |  |  | 171.4
22 | O=c1ccn([C@H]2C[C@H](O)[C@@H](COP(=O)(O)OP(=O)(O)OP(=O)(O)O)O2)c(=O)[nH]1 [DEOXYURIDINE TRIPHOSPHATE] | 185.3 Å² | 178.6 Å² | 188.9 Å² |  |  | 
23 | O=c1ccn([C@H]2C[C@H](O)[C@@H](CO)O2)c(=O)[nH]1 [DEOXYURIDINE] | 156.4 Å² | 148.9 Å² |  |  |  | 
24 | C[C@@H]1NC(=O)N[C@@H]1CCCCCC(=O)O [DETHIOBIOTIN] | 155 Å² | 152.5 Å² | 148.8 Å² |  | 144 Å² | 155.8
25 | Nc1nc(=O)c2ncn([C@H]3C[C@H](O)[C@@H](COP(=O)(O)OP(=O)(O)O)O3)c2[nH]1 [DGDP] | 185.2 Å² | 180.8 Å² | 177.5 Å² and 185.6 Å² |  | 188.5 Å² | 
26 | O=C1CC(C(=O)O)NC(=O)N1 (stereo not drawn) [DIHYDROOROTATE] |  | 125.2 Å² |  |  |  | 
27 | Cc1cn([C@H]2C[C@H](O)[C@@H](COP(=O)(O)OP(=O)(O)OC3O[C@H](CO)[C@@H](O)[C@H](O)[C@H]3O)O2)c(=O)[nH]c1=O (stereo partly drawn) [DTDP-D-GLUCOSE] | 209.9 Å² | 209.5 Å² | 218.2 Å² |  |  | 
28 | CNC[C@H](O)c1ccc(O)c(O)c1 [EPINEPHRINE] |  | 140.1 Å² |  |  |  | 
29 | NCCOP(=O)(O)O [ETHANOLAMINE PHOSPHATE] |  | 123 Å² |  |  |  | 
30 | O=C(CO)[C@@H](O)[C@H](O)[C@H](O)COP(=O)(O)O [FRUCTOSE 6-PHOSPHATE] | 154.4 Å² | 144.1 Å² | 154.9 Å² |  |  | 
31 | O=P(O)(O)OC1O[C@H](CO)[C@@H](O)[C@H](O)[C@H]1O (stereo partly drawn) [GLUCOSE 1-PHOSPHATE] | 158.3 Å² | 148.7 Å² |  |  |  | 
32 | O=P(O)(O)OC[C@H]1OC(O)[C@H](O)[C@@H](O)[C@@H]1O (stereo partly drawn) [GLUCOSE 6-PHOSPHATE] | 158.1 Å² | 146.5 Å² and 146.6 Å² | 156.9 Å² |  |  | 
33 | N[C@@H](CCC(=O)N[C@@H](CS)C(=O)NCC(=O)O)C(=O)O [GLUTATHIONE REDUCED] | 167 Å² | 162.1 Å² | 164.8 Å² |  | 167.8 Å² | 
34 | O=P(O)(O)OCC(O)CO (stereo not drawn) [GLYCEROL 3-PHOSPHATE] | 137.1 Å² | 127.2 Å² |  |  |  | 
